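The concentration for 50% growth inhibition is given as GI50. TGI denotes the concentration required for complete inhibition of growth.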
Tests used:
Test in all cases: NCI anticancer screen, dose series, 384-well format
786-0 renal = test system: 786-0 renal
A498 renal = test system: A498 renal
ACHN renal = test system: ACHN renal
BT-549 breast = test system: BT-549 breast
CAKI-1 renal = test system: CAKI-1 renal
COLO 205 colon = test system: COLO 205 colon
DU-145 prostate = test system: DU-145 prostate
EKVX NSCLC = test system: EKVX NSCLC
HCT-116 colon = test system: HCT-116 colon
HCT-15 colon = test system: HCT-15 colon
HL-60(TB) leukemia = test system: HL-60(TB) leukemia
HOP-62 NSCLC = test system: HOP-62 NSCLC
HOP-92 NSCLC = test system: HOP-92 NSCLC
HS 578T breast = test system: HS 578T breast
HT29 colon = test system: HT29 colon
IGROV1 ovarian = test system: IGROV1 ovarian
K-562 leukemia = test system: K-562 leukemia
KM12 colon = test system: KM12 colon
M14 melanoma = test system: M14 melanoma
MALME-3M melanoma = test system: MALME-3M melanoma
MDA-MB-231 breast = test system: MDA-MB-231 breast
MDA-MB-435 melanoma = test system: MDA-MB-435 melanoma
MDA-MB-468 breast = test system: MDA-MB-468 breast
MOLT-4 leukemia = test system: MOLT-4 leukemia
NCI-H226 lung = test system: NCI-H226 lung
NCI-H23 lung = test system: NCI-H23 lung
NCI-H322M lung = test system: NCI-H322M lung
NCI-H460 NSCLC = test system: NCI-H460 NSCLC
NCI-H522 lung = test system: NCI-H522 lung
OVCAR-3 ovarian = test system: OVCAR-3 ovarian
OVCAR-4 ovarian = test system: OVCAR-4 ovarian
OVCAR-5 ovarian = test system: OVCAR-5 ovarian
OVCAR-8 ovarian = test system: OVCAR-8 ovarian
PC-3 prostate = test system: PC-3 prostate
RXF 393 renal = test system: RXF 393 renal
SF-268 CNS = test system: SF-268 CNS
SF-295 CNS = test system: SF-295 CNS
SF-539 CNS = test system: SF-539 CNS
SK-MEL-2 melanoma = test system: SK-MEL-2 melanoma
SK-MEL-28 melanoma = test system: SK-MEL-28 melanoma
SK-MEL-5 melanoma = test system: SK-MEL-5 melanoma
SK-OV-3 ovarian = test system: SK-OV-3 ovarian
SN12C renal = test system: SN12C renal
SNB-19 CNS = test system: SNB-19 CNS
SNB-75 CNS = test system: SNB-75 CNS
SR leukemia = test system: SR leukemia
SW-620 colon = test system: SW-620 colon
T-47D breast = test system: T-47D breast
TK-10 renal = test system: TK-10 renal
U251 glioblastoma = test system: U251 glioblastoma
UACC-257 melanoma = test system: UACC-257 melanoma
UACC-62 melanoma = test system: UACC-62 melanoma
UO-31 renal = test system: UO-31 renal

`Nc1nn2cc(F)cnc2c1C(=O)Nc1cncc(F)c1N1CCC(C(=O)N2CCN(C3COC3)CC2)CC1` showed a GI50 ([…]-0 renal) of 103 nM, a TGI (786-0 renal) of 323 nM and a GI50 (A498 renal) of 34.5 nM. The TGI (A498 renal) was 207 nM, the GI50 (ACHN renal) was 46.9 nM and the TGI (ACHN renal) was 251 nM. For the same compound, the GI50 (BT-549 breast) was 24.5 nM, the TGI (BT-549 breast) was 84.4 nM and the GI50 (CAKI-1 renal) was 185 nM. It also gave a TGI (CAKI-1 renal) of 1470 nM, a GI50 (COLO 205 colon) of 218 nM and a TGI (COLO 205 colon) of 2090 nM. The GI50 (DU-145 prostate) was 70.5 nM, the TGI (DU-145 prostate) was 954 nM and the GI50 (EKVX NSCLC) was 132 nM. It also gave a TGI (EKVX NSCLC) of 615 nM, a GI50 (HCT-116 colon) of 92.9 nM and a TGI (HCT-116 colon) of 1750 nM. It also gave a GI50 (HCT-15 colon) of 34.7 nM, a TGI (HCT-15 colon) of 208 nM and a GI50 (HL-60(TB) leukemia) of 37.4 nM. It also gave a TGI (HL-60(TB) leukemia) of 83.8 nM, a GI50 (HOP-62 NSCLC) of 21.4 nM and a TGI (HOP-62 NSCLC) of 218 nM. For the same compound, the GI50 (HOP-92 NSCLC) was 47.9 nM, the TGI (HOP-92 NSCLC) was 539 nM and the GI50 (HS 578T breast) was 13 nM. The TGI (HS 578T breast) was 42.2 nM, the GI50 (HT29 colon) was 302 nM and the TGI (HT29 colon) was greater than 100000 nM. It also gave a GI50 (IGROV1 ovarian) of 170 nM, a TGI (IGROV1 ovarian) of 1540 nM and a GI50 (K-562 leukemia) of 48.2 nM. The TGI (K-562 leukemia) was 179 nM, the GI50 (KM12 colon) was 32.7 nM and the TGI (KM12 colon) was 727 nM. For the same compound, the GI50 (M14 melanoma) was 35 nM, the TGI (M14 melanoma) was 378 nM and the GI50 (MALME-3M melanoma) was 18.8 nM. The TGI (MALME-3M melanoma) was 53.2 nM, the GI50 (MDA-MB-231 breast) was 789 nM and the TGI (MDA-MB-231 breast) was greater than 100000 nM. It also gave a GI50 (MDA-MB-435 melanoma) of 35.7 nM, a TGI (MDA-MB-435 melanoma) of 308 nM and a GI50 (MDA-MB-468 breast) of 29.4 nM. It also gave a TGI (MDA-MB-468 breast) of 324 nM, a TGI (MOLT-4 leukemia) of 11.8 nM and a GI50 (NCI-H226 lung) of 327 nM. For the same compound, the TGI (NCI-H226 lung) was 2240 nM, the GI50 (NCI-H23 lung) was 16.9 nM and the TGI (NCI-H23 lung) was 55.2 nM. It also gave a GI50 (NCI-H322M lung) of 33.9 nM, a TGI (NCI-H322M lung) of 306 nM and a GI50 (NCI-H460 NSCLC) of 20.8 nM. The TGI (NCI-H460 NSCLC) was 156 nM, the GI50 (NCI-H522 lung) was 183 nM and the TGI (NCI-H522 lung) was 735 nM. It also gave a GI50 (OVCAR-3 ovarian) of 215 nM, a TGI (OVCAR-3 ovarian) of 1420 nM and a GI50 (OVCAR-4 ovarian) of 62.5 nM. It also gave a TGI (OVCAR-4 ovarian) of 2440 nM, a GI50 (OVCAR-5 ovarian) of 543 nM and a TGI (OVCAR-5 ovarian) greater than 100000 nM. It also gave a GI50 (OVCAR-8 ovarian) of 174 nM, a TGI (OVCAR-8 ovarian) of 558 nM and a GI50 (PC-3 prostate) of 296 nM. The TGI (PC-3 prostate) was 2820 nM, the GI50 (RXF 393 renal) was 16 nM and the TGI (RXF 393 renal) was 53.2 nM. For the same compound, the GI50 (SF-268 CNS) was 77.6 nM, the TGI (SF-268 CNS) was 1740 nM and the GI50 (SF-295 CNS) was 31.5 nM. The TGI (SF-295 CNS) was 171 nM, the GI50 (SF-539 CNS) was 33 nM and the TGI (SF-539 CNS) was 149 nM. The GI50 (SK-MEL-2 melanoma) was 24.1 nM, the TGI (SK-MEL-2 melanoma) was 80.2 nM and the GI50 (SK-MEL-28 melanoma) was 2040 nM. For the same compound, the TGI (SK-MEL-28 melanoma) was greater than 100000 nM, the GI50 (SK-MEL-5 melanoma) was 98.6 nM and the TGI (SK-MEL-5 melanoma) was 334 nM. For the same compound, the GI50 (SK-OV-3 ovarian) was 57.3 nM, the TGI (SK-OV-3 ovarian) was 264 nM and the GI50 (SN12C renal) was 376 nM. The TGI (SN12C renal) was 2930 nM, the GI50 (SNB-19 CNS) was 407 nM and the TGI (SNB-19 CNS) was 4350 nM. The GI50 (SNB-75 CNS) was 219 nM, the TGI (SNB-75 CNS) was 1990 nM and the TGI (SR leukemia) was 22.1 nM. The GI50 (SW-620 colon) was 227 nM, the TGI (SW-620 colon) was greater than 100000 nM and the GI50 (T-47D breast) was 4730 nM. The TGI (T-47D breast) was greater than 100000 nM, the GI50 (TK-10 renal) was 29.9 nM and the TGI (TK-10 renal) was 231 nM. The GI50 (U251 glioblastoma) was 141 nM, the TGI (U251 glioblastoma) was 1170 nM and the GI50 (UACC-257 melanoma) was 332 nM. The TGI (UACC-257 melanoma) was 1890 nM, the GI50 (UACC-62 melanoma) was 223 nM and the TGI (UACC-62 melanoma) was 1570 nM. The GI50 (UO-31 renal) was 194 nM and the TGI (UO-31 renal) was 717 nM.

From PubChem BioAssay (NCI)
